Measurements as given in publication PMC9127750, “Structure-based design of CDC42 effector interaction inhibitors for the treatment of cancer” (Cell reports, 2022).
Several values for one entry are separate records, joined by “and”; a condition that tells them apart may be missing. Equal entries are not always repeated.

System: WM3248 melanoma cells, 486 antibodies
Test: Reverse phase protein arrays (RPPA);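 as to CA9.R.C RPPA level: ratio of treated to vehicle (0 µM) normalized linear protein signal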;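 as to CD171.M.V RPPA level: ratio of treated to vehicle (0 µM) normalized linear protein signal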;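 as to CREB pS133.R.C RPPA level: ratio of treated to vehicle (0 µM) normalized linear protein signal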;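 as to Cyclin.B1.R.V RPPA level: ratio of treated to vehicle (0 µM) normalized linear protein signal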
Assay type: cell-based, Human
Conditions: 20 uM
Description: Pellets were snap frozen in liquid nitrogen and shipped to MD Anderson Cancer Center core RPPA facility for RPPA analysis (Table S5). Three biological replicates for each sample were generated.
Nomenclatures on the RPPA heatmaps: name_of_antibody.species_of_antibody.status_of_antibody. V - antibody validated; C - validation of antibody in progress; Q - antibody nonspecific; E – under evaluation; antibodies raised in M - mouse, G - goat, R - rabbit, or T - rat.

CN(C)c1cccc(Nc2cc(-c3ccccc3)nc(C3CCNCC3)n2)c1 [ARN22089, N1,N1-dimethyl-N3-(6-phenyl-2-(piperidin-4-yl)pyrimidin-4-yl)benzene-1,3-diamine]
RPPA signal, antibody UQCRC2.M.C (individual replicates): 0.993 and 0.916 and 0.753
RPPA signal, antibody UVRAG.R.C (individual replicates): 0.916 and 1.111 and 1.110
RPPA signal, antibody VASP.R.V (individual replicates): 1.010 and 0.872 and 0.975
RPPA signal, antibody VAV1.R.C (individual replicates): 0.958 and 1.058 and 1.057
RPPA signal, antibody VEGFR.2.R.V (individual replicates): 0.883 and 0.823 and 1.079
RPPA signal, antibody VEGFR.2_pY1175.R.C (individual replicates): 1.118 and 0.976
RPPA signal, antibody VHL.EPPK1.M.C (individual replicates): 1.005 and 1.203 and 0.853
RPPA signal, antibody VHL.R.C (individual replicates): 0.953 and 0.849
RPPA signal, antibody Vinculin.M.V (individual replicates): 0.888 and 0.854 and 0.998
RPPA signal, antibody WIPI1.R.C (individual replicates): 1.160 and 1.238 and 1.145
RPPA signal, antibody WIPI2.R.C (individual replicates): 1.015 and 1.158 and 1.252
RPPA signal, antibody WTAP.R.V (individual replicates): 1.419 and 1.174 and 0.998
RPPA signal, antibody Wee1.R.C (individual replicates): 0.776 and 1.131 and 1.126
RPPA signal, antibody Wee1_pS642.R.C (individual replicates): 0.845 and 1.173 and 1.116
RPPA signal, antibody XBP.1.G.C (individual replicates): 0.989 and 0.988
RPPA signal, antibody XIAP.R.C (individual replicates): 0.944 and 0.910 and 1.125
RPPA signal, antibody XPA.M.V (individual replicates): 0.967 and 1.026
RPPA signal, antibody XPF.R.C (individual replicates): 0.937 and 0.898 and 1.023
RPPA signal, antibody XRCC1.R.C (individual replicates): 1.008 and 1.026
RPPA signal, antibody YAP.R.C (individual replicates): 1.004 and 1.030 and 0.945
RPPA signal, antibody YAP_pS127.R.V (individual replicates): 1.152 and 0.978 and 0.976
RPPA signal, antibody YB1_pS102.R.V (individual replicates): 1.029 and 0.913 and 1.102
RPPA signal, antibody YES1.R.V (individual replicates): 1.048 and 0.896 and 0.978
RPPA signal, antibody YTHDF2.R.V (individual replicates): 1.166 and 0.983 and 0.917
RPPA signal, antibody YTHDF3.R.C (individual replicates): 0.960 and 0.870
RPPA signal, antibody ZAP.70.R.V (individual replicates): 0.979 and 0.883 and 0.925
RPPA signal, antibody ZEB1.R.V (individual replicates): 1.076 and 1.001 (2×)
C.Raf.R.C RPPA level (replicates): 0.876 and 1.165 and 1.143
C.Raf_pS338.R.V RPPA level (replicates): 0.991 and 1.112 and 1.160
CA9.R.C RPPA level (replicates): 0.919 and 0.861 and 0.996
CD2.M.C RPPA level (replicates): 0.941 and 0.909 and 0.958
CD4.R.V RPPA level (replicates): 0.942 and 0.993 and 1.083
CD5.M.C RPPA level (replicates): 0.997 and 0.956 and 0.945
CD20.R.C RPPA level (replicates): 1.250 and 0.955
CD26.R.V RPPA level (replicates): 1.005 and 0.958 and 1.161
CD29.M.V RPPA level (replicates): 0.953 and 0.914 and 0.985
CD31.M.V RPPA level (replicates): 0.978 and 0.997 and 0.990
CD38.R.C RPPA level (replicates): 0.979 and 1.221 and 1.194
CD44.R.C RPPA level (replicates): 1.115 and 0.966
CD45.M.V RPPA level (replicates): 0.921 and 0.967 and 0.985
CD49b.M.V RPPA level (replicates): 0.971 and 0.954
CD68.M.C RPPA level (replicates): 1.009 and 1.025 and 0.962
CD74.M.V RPPA level (replicates): 1.011 and 1.026 and 0.956
CD134.R.V RPPA level (replicates): 0.989 and 0.997 and 0.996
CD171.M.V RPPA level (replicates): 0.680 and 0.817 and 0.790
CDK1_pT14.R.C RPPA level (replicates): 1.334 and 0.655
CDK9.R.V RPPA level (replicates): 1.161 and 0.839 and 0.893
CDKN2A.R.C RPPA level (replicates): 0.966 and 1.130 and 0.976
CDT1.R.V RPPA level (replicates): 0.905 and 0.934
CENP.A.R.V RPPA level (replicates): 2.651 and 0.953
CHD1L.R.V RPPA level (replicates): 0.935 and 0.987 and 0.941
CIITA.R.C RPPA level (replicates): 1.013 and 1.020 and 0.972
COG3.R.V RPPA level (replicates): 0.941 and 1.097 and 1.256
CRABP1.R.C RPPA level (replicates): 1.019 and 1.064 and 0.991
CRABP2.R.V RPPA level (replicates): 0.965 and 1.085 and 0.882
CREB_pS133.R.C RPPA level (replicates): 0.965 and 1.585 and 1.260
CSK.R.C RPPA level (replicates): 0.871 and 1.022
Calnexin.R.V RPPA level (replicates): 0.849 and 0.983
Caspase.3.cleaved.R.C RPPA level (replicates): 0.952 and 1.128 and 1.028
Caspase.7.cleaved..R.C RPPA level (replicates): 1.007 and 0.873 and 1.064
Caspase.8.M.Q RPPA level (replicates): 1.015 and 0.943 and 0.830
Caspase.8.cleaved.R.C RPPA level (replicates): 0.945
Caveolin.1.R.V RPPA level (replicates): 0.593 and 0.774 and 1.160
Cdc6.R.V RPPA level (replicates): 1.141 and 0.773 and 0.673
Cdc42.R.C RPPA level (replicates): 0.928 and 1.027 and 1.096
Chk1.M.C RPPA level (replicates): 0.847 and 0.982
Chk1_pS296.R.V RPPA level (replicates): 0.942 and 1.163 and 1.155
Chk1_pS345.R.C RPPA level (replicates): 1.030 and 1.165 and 1.125
Chk2.M.V RPPA level (replicates): 0.868 and 0.876 and 0.992
Chk2_pT68.R.C RPPA level (replicates): 0.919 and 1.631 and 1.172
Claudin.7.R.V RPPA level (replicates): 0.970 and 1.594 and 0.965
Collagen.VI.R.V RPPA level (replicates): 1.150 and 0.775 and 0.928
Complex.II.Subunit.M.V RPPA level (replicates): 0.977 and 0.871 and 0.988
Connexin.43.R.C RPPA level (replicates): 0.961 and 1.203 and 1.101
Coup.TFII.R.C RPPA level (replicates): 0.854 and 0.942 and 1.027
Cox2.R.C RPPA level (replicates): 1.254 and 0.972 and 1.574
Cox.IV.R.V RPPA level (replicates): 1.125 and 0.898 and 0.967
Creb.R.C RPPA level (replicates): 1.005 and 1.024 and 1.173
CtIP.R.V RPPA level (replicates): 0.804 and 0.988 and 1.058
Cyclin.B1.R.V RPPA level (replicates): 1.623 and 0.503 and 1.275
Cyclin.D1.R.C RPPA level (replicates): 1.131 and 1.034 and 0.955
